The results in this text go back to ChEMBL document CHEMBL3994607, “Synthesis of new sarsasapogenin derivatives with cytotoxicity and apoptosis-inducing activities in human breast cancer MCF-7 cells” (Eur J Med Chem, 2017).

The source made the active and inactive calls. The calls are words filed in the database; no cut-off is given here.

Assay [1] concerns MCF7. Nature of the assay: Cytotoxicity against human MCF7 cells assessed as decrease in cell proliferation after 48 hrs by MTT colorimetric assay. Type of assay: functional, cell-based. (In general: Tetrazolium dyes change colour on reduction, which living cells bring about.)
Assay [2] concerns MCF7. The assay is described as follows: Induction of apoptosis in human MCF7 cells assessed as early apoptotic cells at 1.5 uM after 48 hrs by annexin-V/propidium iodide staining-based flow cytometric method (reference value: 1.17%). Type of assay: functional.
The subject of assay [3] is MCF7. The assay is described as follows: Induction of apoptosis in human MCF7 cells assessed as formation of apoptotic bodies at 1.5 to 6 uM after 48 hrs by inverted phase contrast microscopic method. Type of assay: functional, cell-based.
Another assay has as its system U-251. The assay is described as follows: Cytotoxicity against human U251 cells assessed as decrease in cell proliferation after 48 hrs by MTT colorimetric assay. Type of assay: functional, cell-based. The note with it: U-251, 48 h.
Assay [4] deals with MCF7. Nature of the assay: Induction of apoptosis in human MCF7 cells assessed as late apoptotic cells at 6 uM after 48 hrs by annexin-V/propidium iodide staining-based flow cytometric method (reference value: […]). Type of assay: functional. A general note: A flow cytometer gives signals particle by particle.
The subject of another assay is Bcap37. Nature of the assay: Cytotoxicity against human Bcap37 cells assessed as decrease in cell proliferation after 48 hrs by MTT colorimetric assay. Type of assay: functional, cell-based. The note with it: Bcap37, 48 h.
In assay [5] the test system is MCF7. Nature of the assay: Cell cycle arrest in human MCF7 cells assessed as accumulation at sub-G1 phase at 1.5 to 6 uM after 48 hrs by propidium iodide staining-based flow cytometric method. Type of assay: functional.
Assay [6] has as its system MCF7. Nature of the assay: Induction of apoptosis in human MCF7 cells assessed as early apoptotic cells at 6 uM after 48 hrs by annexin-V/propidium iodide staining-based flow cytometric method (reference value: 1.17%). Type of assay: functional.
The test system of assay [7] is MCF7. The assay is described as follows: Cell cycle arrest in human MCF7 cells assessed as accumulation at G2/M phase at 1.5 to 6 uM after 48 hrs by propidium iodide staining-based flow cytometric method. Type of assay: functional.
For assay [8], the system named is MCF7. Nature of the assay: Induction of apoptosis in human MCF7 cells assessed as upregulation of cleaved caspase 7 level at 6 uM after 48 hrs by Western blot method relative to control. Type of assay: functional. (Immunoblotting shows a protein as a band on a membrane.)
The subject of another assay is HepG2. Nature of the assay: Cytotoxicity against human HepG2 cells assessed as decrease in cell proliferation after 48 hrs by MTT colorimetric assay. Type of assay: functional, cell-based. The note with it: HepG2, 48 h.
For assay [9], the system named is MCF7. The assay is described as follows: Induction of apoptosis in human MCF7 cells assessed as membrane blebbing at 1.5 to 6 uM after 48 hrs by inverted phase contrast microscopic method. Type of assay: functional, cell-based.
A further assay has as its system Hep 3B2. The assay is described as follows: Cytotoxicity against human Hep3B cells assessed as decrease in cell proliferation after 48 hrs by MTT colorimetric assay. Type of assay: functional, cell-based.
Assay [10] has as its system MCF7. Nature of the assay: Induction of apoptosis in human MCF7 cells assessed as early apoptotic cells at 3 uM after 48 hrs by annexin-V/propidium iodide staining-based flow cytometric method (reference value: 1.17%). Type of assay: functional.
Assay [11] concerns MCF7. Nature of the assay: Induction of apoptosis in human MCF7 cells assessed as cell shrinkage at 1.5 to 6 uM after 48 hrs by inverted phase contrast microscopic method. Type of assay: functional, cell-based.
Assay [12] relates to MCF7. Nature of the assay: Induction of apoptosis in human MCF7 cells assessed as late apoptotic cells at 1.5 uM after 48 hrs by annexin-V/propidium iodide staining-based flow cytometric method (reference value: 1.43%). Type of assay: functional.
Assay [13] concerns MCF7. The assay is described as follows: Potency index, ratio of sarsasapogenin IC50 to test compound IC50 for human MCF7 cells. Type of assay: functional.
Assay [14] has as its system MCF7. Nature of the assay: Induction of apoptosis in human MCF7 cells assessed as late apoptotic cells at 3 uM after 48 hrs by annexin-V/propidium iodide staining-based flow cytometric method (reference value: 1.43%). Type of assay: functional.
The subject of a further assay is A549. The assay is described as follows: Cytotoxicity against human A549 cells assessed as decrease in cell proliferation after 48 hrs by MTT colorimetric assay. Type of assay: functional, cell-based. As to conditions: A549, 48 h.
The subject of assay [15] is MCF7. The assay is described as follows: Induction of apoptosis in human MCF7 cells assessed as cell rounding at 1.5 to 6 uM after 48 hrs by inverted phase contrast microscopic method. Type of assay: functional, cell-based.
Assay [16] has as its system MCF7. Nature of the assay: Induction of apoptosis in human MCF7 cells assessed as upregulation of cleaved PARP level at 6 uM after 48 hrs by Western blot method relative to control. Type of assay: functional.

The term IC50 denotes the point on the concentration scale where inhibition reaches its midpoint. Take `COc1ccc(CO[C@H]2CC[C@@]3(C)[C@H](CC[C@@H]4[C@@H]3CC[C@]3(C)[C@H]5[C@H](C)[C@@H](CC[C@H](C)CN6CCNCC6)O[C@H]5C[C@@H]43)C2)cc1`: the Activity entry in the assay with MCF7 [1] was “Dose-dependent effect”; with MCF7 [1] (record 2), 2.95 µM; with MCF7 [2], 3.24%; with MCF7 [4], 7.27%; in the assay on MCF7 [6], 4.35%; in the assay on MCF7 [10], 4.51%. Also, the Activity stood at 5.21% with MCF7 [12] and 5.8% with MCF7 [14]. Besides, the outcome in the assay with MCF7 [3], with MCF7 [5], with MCF7 [7], with MCF7 [9], in the assay with MCF7 [11] and with MCF7 [15] was Active. The 50% inhibitory concentration (IC50) amounted to 4.92 µM in the assay with U-251; 8.83 µM in the assay on Bcap37; 4.35 µM in the assay with HepG2; 9.07 µM in the assay with Hep 3B2; 4.43 µM in the assay with A549. The “fold change (FC)” value in the assay on MCF7 [8] is recorded as 16; in the assay on MCF7 [16] it was 13. For the same compound, the “Ratio IC50” value with MCF7 [13] was 16.7.
